For series [1], the target named is T1, Tryptophan 2,3-dioxygenase (Homo sapiens, UniProt P48775). Put plainly: Inhibition of TDO2 in human SW48 cells assessed as decrease in conversion of tryptophan to N-formylkynurenine after 30 mins by fluorescence assay. It counts as cell-based.
The target in series [2] is T1, Tryptophan 2,3-dioxygenase. Put plainly: Inhibition of recombinant human TDO2 assessed as decrease in conversion of L-tryptophan to N-formylkynurenine preincubated for 5 mins followed by 0.2 mM substrate addition measured after 15 mins by RapidFire mass spectrometry based fluorescence assay.
The subject of series [3] is SW48. Nature of the series: Cytotoxicity against human SW48 cells assessed as reduction in cell viability up to 25 uM by Cell Titer-Glo based luminescence assay. A general note: In ATP-based viability assays light output follows the ATP content of the culture.
Series [4] relates to A 172. Put plainly: Cytotoxicity against human A172 cells assessed as reduction in cell viability up to 25 uM by Cell Titer-Glo based luminescence assay.
Series [5] has as its target Cytochrome P450 3A4 (Homo sapiens, UniProt P08684). Nature of the series: Inhibition of CYP3A4 (unknown origin). It counts as ADME.
In series [6] the target is T2, Cytochrome P450 1A2 (Homo sapiens, UniProt P05177).
T2 sequence (P05177 whole entry): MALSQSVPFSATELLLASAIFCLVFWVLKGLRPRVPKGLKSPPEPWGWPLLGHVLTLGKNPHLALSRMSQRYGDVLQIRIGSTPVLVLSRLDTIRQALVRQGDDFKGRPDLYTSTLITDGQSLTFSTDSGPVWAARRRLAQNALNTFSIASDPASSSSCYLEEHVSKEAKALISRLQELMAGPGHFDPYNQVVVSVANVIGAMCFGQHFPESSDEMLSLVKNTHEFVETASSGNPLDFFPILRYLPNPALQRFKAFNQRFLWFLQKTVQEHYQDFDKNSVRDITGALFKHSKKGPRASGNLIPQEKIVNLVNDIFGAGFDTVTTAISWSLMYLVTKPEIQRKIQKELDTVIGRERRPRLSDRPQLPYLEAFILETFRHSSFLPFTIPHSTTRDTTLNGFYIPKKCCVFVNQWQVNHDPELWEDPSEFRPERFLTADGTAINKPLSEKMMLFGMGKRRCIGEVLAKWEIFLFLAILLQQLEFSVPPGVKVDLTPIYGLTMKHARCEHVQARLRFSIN
Put plainly: Inhibition of CYP1A2 (unknown origin). It counts as ADME.

The target in series [7] is Cytochrome P450 2D6 (Homo sapiens, UniProt P10635). Nature of the series: Inhibition of CYP2D6 (unknown origin). It counts as ADME.
Cytochrome P450 2D6, sequence (P10635 whole entry): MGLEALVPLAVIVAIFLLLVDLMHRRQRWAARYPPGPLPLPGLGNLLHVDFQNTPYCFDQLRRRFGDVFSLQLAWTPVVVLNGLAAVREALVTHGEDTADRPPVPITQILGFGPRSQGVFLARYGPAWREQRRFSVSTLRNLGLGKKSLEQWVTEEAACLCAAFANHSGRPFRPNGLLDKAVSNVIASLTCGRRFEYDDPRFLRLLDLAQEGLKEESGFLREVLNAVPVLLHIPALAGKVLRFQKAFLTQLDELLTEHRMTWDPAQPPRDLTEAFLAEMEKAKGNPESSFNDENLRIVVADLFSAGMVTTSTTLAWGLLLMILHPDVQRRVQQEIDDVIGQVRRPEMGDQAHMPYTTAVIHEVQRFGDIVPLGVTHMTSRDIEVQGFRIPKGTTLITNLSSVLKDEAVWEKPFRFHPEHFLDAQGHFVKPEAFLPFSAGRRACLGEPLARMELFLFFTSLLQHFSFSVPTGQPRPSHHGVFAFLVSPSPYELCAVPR
In series [8] the target is Cytochrome P450 2C9 (Homo sapiens, UniProt P11712). Put plainly: Inhibition of CYP2C9 (unknown origin). It counts as ADME.
Cytochrome P450 2C9, sequence (P11712 whole entry): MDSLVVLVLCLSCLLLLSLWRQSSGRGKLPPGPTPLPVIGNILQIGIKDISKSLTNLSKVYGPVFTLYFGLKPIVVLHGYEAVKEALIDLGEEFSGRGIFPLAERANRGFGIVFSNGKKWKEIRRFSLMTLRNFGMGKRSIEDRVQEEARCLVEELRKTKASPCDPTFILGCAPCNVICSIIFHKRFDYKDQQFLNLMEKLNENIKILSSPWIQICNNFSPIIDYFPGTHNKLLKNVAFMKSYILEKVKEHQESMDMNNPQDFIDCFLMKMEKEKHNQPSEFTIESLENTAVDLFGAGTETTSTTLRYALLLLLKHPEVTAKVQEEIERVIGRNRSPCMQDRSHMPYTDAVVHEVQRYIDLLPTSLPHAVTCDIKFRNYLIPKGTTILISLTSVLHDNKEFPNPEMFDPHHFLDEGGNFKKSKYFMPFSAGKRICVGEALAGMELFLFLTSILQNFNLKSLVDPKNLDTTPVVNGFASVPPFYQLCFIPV
Series [9] deals with Cytochrome P450 2C19 (Homo sapiens, UniProt P33261). Put plainly: Inhibition of CYP2C19 (unknown origin). It counts as ADME.
Cytochrome P450 2C19, sequence (P33261 whole entry): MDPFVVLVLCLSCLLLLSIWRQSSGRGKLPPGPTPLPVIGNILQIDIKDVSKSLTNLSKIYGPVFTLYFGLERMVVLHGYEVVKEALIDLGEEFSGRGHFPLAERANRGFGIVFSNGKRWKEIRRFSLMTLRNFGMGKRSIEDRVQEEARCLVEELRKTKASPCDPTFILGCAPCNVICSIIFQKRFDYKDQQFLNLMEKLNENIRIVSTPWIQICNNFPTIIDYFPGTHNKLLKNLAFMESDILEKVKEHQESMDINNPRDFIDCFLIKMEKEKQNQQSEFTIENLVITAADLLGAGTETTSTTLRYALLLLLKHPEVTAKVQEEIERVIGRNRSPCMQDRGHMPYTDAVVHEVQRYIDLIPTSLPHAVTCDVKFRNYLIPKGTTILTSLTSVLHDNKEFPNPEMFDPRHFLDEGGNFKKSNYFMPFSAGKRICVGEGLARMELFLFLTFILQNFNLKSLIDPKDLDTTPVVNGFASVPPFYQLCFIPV
The nature of series [10]: Metabolic stability in rat whole blood assessed as parent compound remaining at 0.5 mM after 2 hrs by LC-MS/MS analysis. It counts as ADME, tissue-based. Particulars: read-out: Stability.
Series [11] in a line: Metabolic stability in dog whole blood assessed as parent compound remaining at 0.5 mM after 2 hrs by LC-MS/MS analysis. It counts as ADME, tissue-based, Canis lupus familiaris. Particulars: read-out: Stability.
Series [12] in a line: Metabolic stability in human whole blood assessed as parent compound remaining at 0.5 mM after 2 hrs by LC-MS/MS analysis. It counts as ADME, tissue-based. The conditions noted are these: read-out: Stability.
Series [13] deals with T1, Tryptophan 2,3-dioxygenase. Nature of the series: Competitive inhibition of recombinant human TDO2 assessed as decrease in conversion of L-tryptophan to N-formylkynurenine preincubated for 5 mins followed by 1 mM substrate addition measured after 15 mins by RapidFire mass spectrometry based fluorescence assay.
Series [14] can be described thus: Metabolic stability in rat whole blood assessed as parent compound remaining at 0.5 mM after 30 mins by LC-MS/MS analysis. The conditions noted are these: read-out: Stability. It counts as ADME, tissue-based.
Series [15] in a line: Metabolic stability in dog whole blood assessed as parent compound remaining at 0.5 mM after 30 mins by LC-MS/MS analysis. It counts as ADME, tissue-based, Canis lupus familiaris. Particulars: read-out: Stability.

The record followed here is ChEMBL document CHEMBL4145589, “Aminoisoxazoles as Potent Inhibitors of Tryptophan 2,3-Dioxygenase 2 (TDO2)” (ACS Med Chem Lett, 2018).

Some results are limits rather than exact numbers.

T1 sequence (P48775 whole entry): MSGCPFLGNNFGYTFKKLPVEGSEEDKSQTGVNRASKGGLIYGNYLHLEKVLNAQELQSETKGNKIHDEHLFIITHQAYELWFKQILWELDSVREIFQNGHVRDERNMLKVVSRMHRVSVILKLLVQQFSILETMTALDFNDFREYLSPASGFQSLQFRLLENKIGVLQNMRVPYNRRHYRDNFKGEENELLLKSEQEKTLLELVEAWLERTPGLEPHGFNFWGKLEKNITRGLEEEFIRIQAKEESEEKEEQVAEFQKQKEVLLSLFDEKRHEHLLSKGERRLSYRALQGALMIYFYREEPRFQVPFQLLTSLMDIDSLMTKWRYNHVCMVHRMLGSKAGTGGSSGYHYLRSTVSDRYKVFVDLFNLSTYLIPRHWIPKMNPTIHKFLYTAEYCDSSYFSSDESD
Cytochrome P450 3A4, sequence (P08684 whole entry): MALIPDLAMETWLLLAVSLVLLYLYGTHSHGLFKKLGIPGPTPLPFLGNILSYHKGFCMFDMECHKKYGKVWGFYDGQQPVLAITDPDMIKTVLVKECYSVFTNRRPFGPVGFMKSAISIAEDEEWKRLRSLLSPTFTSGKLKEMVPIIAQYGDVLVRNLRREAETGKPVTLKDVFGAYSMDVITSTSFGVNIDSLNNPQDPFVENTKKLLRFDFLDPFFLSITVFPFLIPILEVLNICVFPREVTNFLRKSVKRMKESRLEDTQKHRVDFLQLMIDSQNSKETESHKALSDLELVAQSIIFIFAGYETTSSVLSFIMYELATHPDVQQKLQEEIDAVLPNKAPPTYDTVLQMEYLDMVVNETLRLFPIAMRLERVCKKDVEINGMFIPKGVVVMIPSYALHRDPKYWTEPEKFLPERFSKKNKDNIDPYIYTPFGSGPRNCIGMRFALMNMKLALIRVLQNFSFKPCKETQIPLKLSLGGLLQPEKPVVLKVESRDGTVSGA

Broadly, the EC50 is the concentration needed to bring the measured effect to its halfway point. The IC50 is the concentration that gives 50% inhibition. As to `Nc1oncc1C1CCCCC1`, in series [1], the EC50 came out at 1.5 µM. Besides, in [2], the IC50 was found to be 7.8 µM. Further, the Activity result in series [3] and in series [4] was “Non-Toxic” throughout.

`c1ccc(-c2cnoc2)cc1`: in [1], the EC50 is greater than 25 µM. Further, the IC50 in series [2] was greater than 25 µM. Besides, the Activity entry in [3] and in [4] was “Non-Toxic” in each case.

`Nc1sncc1-c1ccccc1`: the EC50 in series [1] was greater than 25 µM. For the same molecule, the IC50 in series [2] amounted to 18 µM. Also, the Activity entry in series [3] and in [4] was “Non-Toxic” in each case.

Turning to `CNC(=O)c1oncc1-c1ccccc1`, the EC50 in series [1] was greater than 25 µM. Also, in series [2], the IC50 was greater than 25 µM. Besides, the Activity entry in series [3] and in series [4] was “Non-Toxic” each time.

As for `Nc1oncc1-c1ccccc1`, the EC50 in series [1] was 0.085 µM. For the same molecule, the IC50 is 0.14 µM in series [2]; greater than 10 µM in [5]; greater than 10 µM in series [6]; greater than 10 µM in [7]; greater than 10 µM in series [8]; greater than 10 µM in series [9]. Also, the Activity result in series [3] and in [4] was “Non-Toxic” each time. Besides, the remaining at 2 h, 500 µM in [10], in [11] and in series [12] was 0% each time.

`Nc1oncc1C1CCCC1`: in series [1], the EC50 was 0.36 µM. The IC50 in series [2] came to 0.64 µM. For the same molecule, the Activity entry in series [3] and in [4] was “Non-Toxic” each time.

Regarding `Cn1ncc(-c2ccccc2)c1N`, the EC50 in series [1] was greater than 25 µM. Also, the IC50 in series [2] is greater than 25 µM. Moreover, the Activity entry in series [3] and in [4] was “Non-Toxic” throughout.

Turning to `Nc1oncc1-c1ccc(F)cc1`, the EC50 in [1] was determined as 0.21 µM. The IC50 in series [2] stood at 0.58 µM. Besides, the Activity entry in series [3] and in [4] was “Non-Toxic” in each case.

In the case of `Nc1snnc1-c1ccccc1`, the EC50 in series [1] was greater than 25 µM. For the same molecule, in [2], the IC50 is greater than 25 µM. Moreover, the Activity result in [3] and in series [4] was “Non-Toxic” each time.

As for `CNc1oncc1-c1ccccc1`, the EC50 in [1] was 0.67 µM. For the same molecule, the IC50 in series [2] worked out at 0.19 µM. Also, the Activity result in series [3] and in [4] was “Non-Toxic” in each case. In addition, the remaining at 2 h, 500 µM in [10] turned out to be 0.1%; in series [11], 0.1%; in series [12], 0.3%.

As to `Nc1[nH]ncc1-c1ccccc1`, the EC50 in series [1] is greater than 25 µM. Also, the IC50 in [2] is greater than 25 µM. Also, the Activity result in [3] and in series [4] was “Non-Toxic” in each case.

For `Nc1oncc1-c1ccc(Cl)cc1`, in series [1], the EC50 is 0.95 µM. For the same molecule, the half-inhibitory concentration (IC50) was found to be 0.83 µM in [2] and 4.21 µM in series [13]. The Activity entry in series [3] and in series [4] was “Non-Toxic” in each case.

As to `Nc1oncc1-c1ccccn1`, the EC50 in series [1] stood at 0.82 µM. Also, the IC50 in series [2] was found to be 1.7 µM. For the same molecule, the Activity entry in series [3] and in [4] was “Non-Toxic” each time.

On to `Nc1oncc1-c1cccs1`, for which, in [1], the EC50 was 0.81 µM. The IC50 in series [2] worked out at 0.029 µM. For the same molecule, the Activity result in series [3] and in series [4] was “Non-Toxic” in each case.

Consider `COc1cccc(-c2cnoc2N)c1`, for which the EC50 in series [1] came out at 1.5 µM. The IC50 in series [2] was determined as 3.1 µM. For the same molecule, the Activity entry in series [3] and in [4] was “Non-Toxic” each time.

Regarding `Cc1noc(N)c1-c1ccccc1`, the EC50 in series [1] is 9.7 µM. The Activity result in series [3] and in series [4] was “Non-Toxic” each time. Further, the remaining at 2 h, 500 µM in series [10] turned out to be 50%; in series [11] it was 65%; in [12], 84%.

Take `Nc1oncc1-c1cccnc1`: in [1], the EC50 stood at 1.4 µM. Further, in [2], the IC50 is 2.3 µM. Further, the Activity entry in series [3] and in series [4] was “Non-Toxic” each time.

`Nc1nncn1-c1ccccc1`: the EC50 in [1] is greater than 25 µM. The IC50 in [2] was greater than 25 µM. For the same molecule, the Activity entry in series [3] and in series [4] was “Non-Toxic” in each case.

For `Nc1oncc1-n1cccn1`, in series [1], the EC50 was determined as 0.23 µM. Moreover, the IC50 was 0.29 µM in series [2]; greater than 10 µM in series [5]; greater than 10 µM in [6]; greater than 10 µM in [7]; greater than 10 µM in [8]; greater than 10 µM in series [9]. The Activity entry in series [3] and in series [4] was “Non-Toxic” each time.

In the case of `Nc1oncc1-c1ccsc1`, in series [1], the EC50 worked out at 0.099 µM. In addition, the IC50 in [2] was 0.028 µM; in [5], greater than 10 µM; in series [6] it was greater than 10 µM; in series [7], greater than 10 µM; in [8], greater than 10 µM; in [9], greater than 10 µM. In addition, the Activity result in series [3] and in series [4] was “Non-Toxic” each time. For the same molecule, the remaining at 0.5 h, 500 µM in series [14] and in series [15] was 3% each time.

Regarding `Nc1oncc1-n1cc(F)cn1`, the EC50 in [1] worked out at 0.077 µM. In addition, the IC50 in series [2] is 0.34 µM; in series [5], greater than 10 µM; in series [6], greater than 10 µM; in [7], greater than 10 µM; in series [8], greater than 10 µM; in series [9], greater than 10 µM. The Activity result in series [3] and in [4] was “Non-Toxic” each time. Besides, the remaining at 2 h, 500 µM in [12] is 91%.

As for `OCc1oncc1-c1ccccc1`, the EC50 in series [1] is 18 µM. The IC50 in [2] was 4.4 µM. For the same molecule, the Activity result in series [3] and in series [4] was “Non-Toxic” throughout.

Take `Cc1ccn(-c2cnoc2N)n1`: the EC50 in series [1] was found to be 0.81 µM. Besides, the IC50 in series [2] is 1.6 µM. In addition, the Activity entry in [3] and in [4] was “Non-Toxic” throughout.

`Cc1cnn(-c2cnoc2N)c1`: in series [1], the EC50 was found to be 0.34 µM. Besides, the IC50 in [2] was 1.6 µM. The Activity result in series [3] and in [4] was “Non-Toxic” in each case.

On to `NC(=O)c1oncc1-c1ccccc1`, for which, in [1], the EC50 was greater than 25 µM. Moreover, the IC50 in series [2] is greater than 25 µM. Moreover, the Activity entry in series [3] and in [4] was “Non-Toxic” throughout.

As to `Nc1cnnn1-c1ccccc1`, the EC50 in series [1] is greater than 25 µM. The IC50 in series [2] was greater than 25 µM. The Activity entry in [3] and in series [4] was “Non-Toxic” throughout.

Turning to `Nc1nnsc1-c1ccccc1`, the EC50 in [1] was greater than 25 µM. In addition, the IC50 in series [2] is 0.27 µM. Besides, the Activity entry in [3] and in [4] was “Non-Toxic” throughout.

For the molecule `Nc1cnoc1-c1ccccc1`, in series [1], the EC50 is greater than 25 µM. In addition, the IC50 in [2] was greater than 25 µM. In addition, the Activity entry in series [3] and in series [4] was “Non-Toxic” in each case.

For `Nc1oncc1-c1cccc(Cl)c1`, the EC50 in series [1] is 0.25 µM. Moreover, the figures for the IC50 in series [2] and in series [13] were 0.5 µM and 2.94 µM, respectively. For the same molecule, the Activity entry in series [3] and in series [4] was “Non-Toxic” throughout.

For `Nc1cnsc1-c1ccccc1`, the EC50 in [1] was greater than 25 µM. The IC50 in series [2] was greater than 25 µM. For the same molecule, the Activity entry in series [3] and in [4] was “Non-Toxic” in each case.
